Assay results from patent publication US7173004B2, “Macrocyclic isoquinoline peptide inhibitors of hepatitis C virus” (Bristol-Myers Squibb Company, priority 2003, dated 2007).

Key:
[1] = system: HCV replicon; test: Two-drug combination matrix studies in HCV replicon system, Universal Response Surface Approach (URSA); type: cell-based; conditions: for EC50: Hepatitis C virus
Protocol: In addition to the combination index approach, above, the Universal Response Surface Approach (URSA) was also used to assess the antiviral effects of combinations of NS5A or NS5B inhibitors with the NS3 protease inhibitor. The experiments were conducted in a matrixed format with 8 concentrations of NS3 protease inhibitor crossed against 10 concentrations of NS5A or NS5B inhibitor on each of three plates. 200× stock solutions of each inhibitor concentration were prepared by 3-fold dilution in DMSO. Effects on replication were assessed in the HCV replicon system as described above. The data was analyzed using the URSA as described in Greco, Park and Rustum (Greco, Park, Sook, and Rustum (1990) Application of a New Approach for the Quantitation of Drug Synergism to the Combination of cis-Diamminedichloroplatinum and 1-β-D-Arabinofuranosylcytosine, Cancer Research, 50, 5318–5327). The interaction of the two drugs was assessed by using non-linear regression with a bisection algorithm. Seven parameters were estimated. These include the minimal response or response in the absence of drug, the maximal response or response in the presence of infinite drug, EC50's for the two drugs, slope parameters for the two drugs, and the drug interaction parameter α which provides the assessment of synergism, antagonism or additivity. Additivity is implied when α is equal to zero, synergy if the interaction parameter is larger than zero, and antagonism when the interaction parameter is less than zero. The confidence interval for the interaction parameter is also presented. This interval is used to test for departure from additivity by comparing the bounds to zero—a lower bound of the interval greater than zero indicates synergy, an upper bound of less than zero indicates antagonism, and a value of zero contained in the interval indicates additivity.

[2] = biological target: T1, HCV NS3/4A protease complex, J4L6S strain (1b genotype) (Hepatitis C virus genotype 1b, UniProt O92972, C1454S/C1711G); test: Recombinant HCV NS3/4A protease complex FRET peptide assay, J4L6S strain; type: biochemical
T1 construct: DNA encoding the recombinant HCV NS3/4A protease complex (amino acids 1027 to 1711) for these strains; His tag (inferred from Ni-NTA purification and pET21b vector); made in house; host or cells: Escherichia coli BL21 (DE3)
Description: Recombinant HCV NS3/4A Protease Complex FRET Peptide Assay
The purpose of this in vitro assay was to measure the inhibition of HCV NS3 protease complexes, derived from the BMS strain, H77C strain or J416S strain, as described below, by compounds of the present invention. This assay provides an indication of how effective compounds of the present invention would be in inhibiting HCV proteolytic activity.
Serum from an HCV-infected patient was obtained from Dr. T. Wright, San Francisco Hospital. An engineered full-length cDNA (compliment deoxyribonucleic acid) template of the HCV genome (BMS strain) was constructed from DNA fragments obtained by reverse transcription-PCR (RT-PCR) of serum RNA (ribonucleic acid) and using primers selected on the basis of homology between other genotype 1a strains. From the determination of the entire genome sequence, a genotype 1a was assigned to the HCV isolate according to the classification of Simmonds et al. (See P Simmonds, K A Rose, S Graham, S W Chan, F McOmish, B C Dow, E A Follett, P L Yap and H Marsden, J. Clin. Microbiol., 31(6), 1493–1503 (1993)). […]

[3] = compound 28 combined with NS5A inhibitor, matrix study (Table 10)
[4] = compound 28 combined with NS5B inhibitor, Expt 1
[5] = compound 28 combined with NS5B inhibitor, Expt 2

T1 sequence (O92972 1027-1711 C1454S/C1711G, one chain of several): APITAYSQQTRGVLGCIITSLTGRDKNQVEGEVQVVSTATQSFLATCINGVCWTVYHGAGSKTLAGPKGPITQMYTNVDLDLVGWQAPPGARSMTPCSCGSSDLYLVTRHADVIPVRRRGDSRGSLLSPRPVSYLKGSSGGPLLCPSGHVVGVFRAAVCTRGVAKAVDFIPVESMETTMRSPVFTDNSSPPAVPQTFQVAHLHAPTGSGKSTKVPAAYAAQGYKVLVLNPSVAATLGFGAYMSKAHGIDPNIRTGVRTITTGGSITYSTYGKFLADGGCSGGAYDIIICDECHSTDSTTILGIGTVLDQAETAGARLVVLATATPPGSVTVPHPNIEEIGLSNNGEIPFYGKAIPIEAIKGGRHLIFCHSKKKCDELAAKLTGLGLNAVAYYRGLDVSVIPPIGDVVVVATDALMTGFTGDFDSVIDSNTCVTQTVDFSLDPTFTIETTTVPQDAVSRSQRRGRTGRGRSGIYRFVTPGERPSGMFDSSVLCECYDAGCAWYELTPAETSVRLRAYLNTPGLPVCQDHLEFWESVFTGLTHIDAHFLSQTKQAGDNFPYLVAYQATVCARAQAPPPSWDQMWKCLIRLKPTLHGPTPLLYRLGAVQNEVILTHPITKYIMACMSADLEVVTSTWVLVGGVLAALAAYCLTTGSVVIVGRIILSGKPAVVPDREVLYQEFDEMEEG

| Compound | EC50 ([1]; matrix study with NS5A inhibitor, URSA estimate (Table 10)) [nM] | EC50 ([1]; matrix study with NS5B inhibitor, Expt 1 (Table 11)) [nM] | EC50 ([1]; matrix study with NS5B inhibitor, Expt 2 (Table 11)) [nM] | Interaction parameter alpha [1, 3] | Overall Result [1, 3] | Overall Result ([1]; compound 28 combined with NS5A inhibitor, matrix study (Table 10), listed as compound 28) | Interaction parameter alpha [1, 4] | Overall Result [1, 4] | Interaction parameter alpha [1, 5] | Overall Result [1, 5] | combination effect with the HCV NS5B inhibitor, matrix format ([1]; two experiments) | IC50 [2] [nM] |
| --- | --- | --- | --- | --- | --- | --- | --- | --- | --- | --- | --- | --- |
| COc1ccc2c(OC3CC4C(=O)NC5(C(=O)NS(=O)(=O)C6CC6)CC5C=CCOCCCC(NC(=O)OC(C)(C)C)C(=O)N4C3)nccc2c1 (stereo not drawn) [Compound 28, [4-Cyclopropanesulfonylaminocarbonyl-18-(6-methoxy-isoquinolin-1-yloxy)-2,15-dioxo-10-oxa-3,16-diaza-tricyclo[14.3.0.0^4,6]nonadec-7-en-14-yl]-carbamic acid tert-butyl ester] | 9 | 15 | 20 | 0.63 | Additivity | additivity | 0.47 | Additivity | 0.31 | Additivity | overall additivity |  |
| CC(C)(C)OC(=O)N[C@H]1CCCCC/C=C\[C@@H]2C[C@@]2(C(=O)NS(C)(=O)=O)NC(=O)[C@@H]2C[C@@H](Oc3nccc4ccccc34)CN2C1=O [Compound 2, [18-(Isoquinolin-1-yloxy)-4-methanesulfonylaminocarbonyl-2,15-dioxo-3,16-diaza-tricyclo[14.3.0.0^4,6]nonadec-7-en-14-yl]-carbamic acid tert-butyl ester] |  |  |  |  |  |  |  |  |  |  |  | 1.9 |
